# In patent US8058285B2, “Substituted pyrido [3′, 2′: 4, 5] thieno [3, 2-D] pyrimidines and pyrido [3′, 2′: 4, 5] furo [3, 2-D] pyrimidines used as inhibitors of the PDE-4 and/or the release of TNF-ALPHA” (The Medicines Company (Leipzig) GmbH, priority 2004, dated 2011):
# Where a name gives a salt, the structure may show the parent alone.
# Target: T1, PDE-4A (Homo sapiens, UniProt P27815)
# T1 construct: PDE-4A catalytic domain comprising amino acids 342-704; made in house; host or cells: Escherichia coli
# T1 sequence (P27815 342-704): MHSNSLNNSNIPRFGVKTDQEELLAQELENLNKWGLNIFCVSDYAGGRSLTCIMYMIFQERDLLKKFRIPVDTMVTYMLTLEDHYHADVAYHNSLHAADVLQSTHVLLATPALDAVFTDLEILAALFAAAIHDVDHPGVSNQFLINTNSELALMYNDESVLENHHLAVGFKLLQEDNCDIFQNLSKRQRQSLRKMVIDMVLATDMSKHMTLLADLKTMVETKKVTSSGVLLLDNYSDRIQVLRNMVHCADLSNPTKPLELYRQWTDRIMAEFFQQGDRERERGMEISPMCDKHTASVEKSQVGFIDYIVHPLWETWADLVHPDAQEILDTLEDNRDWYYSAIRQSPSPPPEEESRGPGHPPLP
# Test: PDE-4A inhibitory assay (SPA)
# Type: biochemical
# From the text: Human recombinant PDE-4A catalytic domain comprising amino acids 342-704 was cloned into Escherichia coli and expressed, as described by W. Richter et al., Protein Expression and Purification (2000) 19: 375-383. The other posphodiesterases were either obtained from cell lines of human origin (TPH1 monocytes line for PDE-1, MCF7 for PDE-5) or expressed recombinantly in sf9 insect cells (for PDE-3A, PDE-3B, PDE-7A and PDE-4D) in accordance with an adapted method by Luckow, V. A. et al., in: Recombinant DNA Technology & Applications., (1991) eds. Prokop, Bajpai, R. K. & Ho, C. S., pp 97-152.
# The phosphodiesterase activity was determined by the SPA assay as described by the manufacturer Amersham Biosciences and by Horton J. K and Baxendale P. M., Methods Mol. Biol. (1995) 41: 91-105.
# The reaction mixtures contained 100 mM Tris-HCl (pH 7.5), 5 mM MgCl2, 3.8 mM 2-mercaptoethanol, and 1 μM cAMP or cGMP as a substrate, the inhibitors at different concentrations and also further components required for the detection of the individual isoenzymes (see below). The reaction was started by adding the enzyme. The operating volume is 100 μl in the wells of a white 96-Well microtiter plate. The test substances were produced as stock solutions in DMSO. The DMSO concentration in the reaction batch was 1% v/v. The PDE activity is not impaired with this DMSO concentration. Having started the reaction by the addition of enzyme, the samples were incubated at 22° C. for 20 min. The reaction was stopped by the addition of SPA bead suspension which contains the zinc sulfate concentration provided according to the manufacturer. Then, the beads are allowed to sediment for 30 min and the plates are analyzed on the luminescence microtiter plate reader Fluostar Optima (BMG Labtechologies).
# [^3H]-cAMP was used as a substrate for determining the activity of PDE-2, -3, -4 and -7 and [^3H]-cGMP for determining the activity of PDE-5. The non-specific enzyme activities were determined in the presence of 100 μM rolipram (for PDE-4) and in the presence of 100 μM IBMX (for PDE-3 and -5) and subtracted from the test values. The incubation samples of the PDE-3 assay contain 10 μM rolipram to inhibit possible contaminations by PDE-4. The PDE-2 activity is tested using a SPA assay by Amersham Biosciences in the presence of the PDE-2 activator 5 μM cGMP. […] The selectivity as to PDEs 2, 3 and 5 has a factor of 100 to 10 000.
row,SMILES,IC50 [nM]
1,"CCCCOc1ccc(Oc2ccc(-c3nc(C)c4c(n3)sc3c(OCC)nc(N5CCNCC5)nc34)cc2)cc1 [7-(4-[4-n-Butoxy-phenoxy]phenyl)-4-ethoxy-9-methyl-2-piperazin-1-yl-thieno[2,3-d:4,5-d′]dipyrimidine]",2 to 50
2,"CCOc1nc(N2CCNCC2)nc2c1sc1nc(-c3ccc(-c4cccc(C(=O)OC)c4)cc3)nc(C)c12 [4-(4-Ethoxy-9-methyl-2-piperazin-1-yl-thieno[2,3-d:4,5-d′]dipyrimidin-7-yl)-biphenyl-3′-carboxylic acid methyl ester]",2 to 50
3,"CCOc1nc(N2CCNCC2)c2sc3nc(C(C)C)cc(C(C)C)c3c2n1 [2-Ethoxy-7,9-di-iso-propyl-4-(piperazin-1-yl)-pyrido[3′,2′:4,5]thieno[3,2-d]pyrimidine]",2 to 50
4,"CCOc1nc(N2CCNCC2)nc2c1sc1nc(-c3ccc([N+](=O)[O-])cc3)cc(C(F)(F)F)c12 [4-Ethoxy-7-(4-nitro-phenyl)-2-piperazin-1-yl-9-trifluoromethyl-pyrido[3′,2′:4,5]thieno[3,2-d]pyrimidine]",2 to 50
5,"CCOc1nc(N2CCNCC2)c2sc3nc(C)cc(-c4ccccc4)c3c2n1 [2-Ethoxy-7-methyl-9-phenyl-4-(piperazin-1-yl)-pyrido[3′,2′:4,5]thieno[3,2-d]pyrimidine]",2 to 50
6,"CCOc1nc(N2CCNCC2)nc2c1sc1nc(-c3cccs3)cc(C)c12 [4-Ethoxy-9-methyl-7-thien-2-yl-2-(piperazin-1-yl)-pyrido[3′,2′:4,5]thieno[3,2-d]pyrimidine]",2 to 50
7,"CCOc1nc(N2CCNCC2)nc2c1sc1nc(-c3ccc(Oc4ccc(OC)cc4)cc3)cc(CC)c12 [4-Ethoxy-9-ethyl-7-[4-(4-methoxyphenoxy)phenyl]-2-(piperazin-1-yl)-pyrido[3′,2′:4,5]thieno[3,2-d]pyrimidine]",< 2
8,"CCOc1nc(N2CCNCC2)nc2c1sc1nc(-c3cc(OC)c(OC)c(OC)c3)cc(C(F)(F)F)c12 [4-Ethoxy-2-piperazin-1-yl-9-trifluoromethyl-7-(3,4,5-trimethoxy-phenyl)-pyrido[3′,2′:4,5]thieno[3,2-d]pyrimidine]",2 to 50
9,"CCOc1nc(N2CCNCC2)nc2c1sc1nc(-c3ccc(N4CCOCC4)cc3)cc(C(F)(F)F)c12 [4-Ethoxy-7-(4-morpholinophenyl)-2-(piperazin-1-yl)-9-trifluoromethyl-pyrido[3′,2′:4,5]thieno[3,2-d]pyrimidine]",2 to 50
10,"CCOc1nc(N2CCNCC2)nc2c1sc1nc(-c3ccccc3)c(Cc3ccc([N+](=O)[O-])cc3)c(C)c12 [4-Ethoxy-9-methyl-8-(4-nitro-benzyl)-7-phenyl-2-(piperazin-1-yl)-pyrido[3′,2′:4,5]thieno[3,2-d]pyrimidine]",2 to 50
11,"CCOc1nc(N2CCNCC2)nc2c1sc1nc(-c3ccc(N)cc3)cc(C(F)(F)F)c12 [7-(4-Amino-phenyl)-4-ethoxy-2-piperazin-1-yl-9-trifluoromethyl-pyrido[3′,2′:4,5]thieno[3,2-d]pyrimidine]",2 to 50
12,"CCOc1nc(N2CCNCC2)c2sc3nc(-c4ccc(C)cc4)cc(C)c3c2n1 [2-Ethoxy-9-methyl-7-(4-methyl-phenyl)-4-(piperazin-1-yl)-pyrido[3′,2′:4,5]thieno[3,2-d]pyrimidine]",2 to 50
13,"CCOc1nc(N2CCNCC2)nc2c1sc1nc(-c3ccc(-c4cncnc4)cc3)nc(C)c12 [4-Ethoxy-9-methyl-2-piperazin-1-yl-7-(4-[5-pyrimidinyl]-phenyl)-thieno[2,3-d:4,5-d′]dipyrimidine]",2 to 50
14,"CCOc1nc(N2CCNCC2)nc2c1sc1nc(-c3ccc(I)cc3)cc(C(F)(F)F)c12 [4-Ethoxy-7-(4-iodo-phenyl)-2-(piperazin-1-yl)-9-trifluoromethyl-pyrido[3′,2′:4,5]thieno[3,2-d]pyrimidine]",< 2
15,"CCOc1nc(N2CCNCC2)nc2c1sc1nc(-c3ccc(-c4ccncc4)cc3)nc(C)c12 [4-Ethoxy-9-methyl-2-piperazin-1-yl-7-(4-[4-pyridyl]-phenyl)-thieno[2,3-d:4,5-d′]dipyrimidine]",< 2
16,"CCOc1nc(N2CCNCC2)nc2c1sc1nc(-c3cccc(N)c3)cc(C(F)(F)F)c12 [7-(3-Amino-phenyl)-4-Ethoxy-2-piperazin-1-yl-9-trifluoromethyl-pyrido[3′,2′:4,5]thieno[3,2-d]pyrimidine]",2 to 50
17,"CCOc1nc(N2CCNCC2)nc2c1sc1nc(-c3ccc(C(F)(F)F)cc3)cc(C)c12 [4-Ethoxy-7-(4-trifluoro-methyl-phenyl)-9-methyl-2-(piperazin-1-yl)-pyrido[3′,2′:4,5]thieno[3,2-d]pyrimidine]",2 to 50
18,"CCOc1nc(N2CCNCC2)nc2c1sc1nc(-c3ccc(-c4cccc(C(=O)O)c4)cc3)nc(C)c12 [4-(4-Ethoxy-9-methyl-2-piperazin-1-yl-thieno[2,3-d:4,5-d′]dipyrimidin-7-yl)-biphenyl-3′-carboxylic acid potassium salt]",2 to 50
19,"CCOc1nc(N2CCNCC2)nc2c1sc1nc(N3CCN(c4ncccn4)CC3)cc(CC)c12 [4-Ethoxy-9-ethyl-7-(4-(pyrimidyl-2-yl)piperazin-1-yl)-2-piperazin-1-yl-pyrido[3′,2′:4,5]thieno[3,2-d]pyrimidine]",< 2

# More lines, now with the values ahead:
row,IC50 [nM],SMILES
1,2 to 50,"CCOc1nc(N2CCNCC2)nc2c1sc1nc(N3CCOCC3)c3c(c12)CCC3 [7-Ethoxy-2,3-dihydro-4-morpholino-9-piperazin-1yl-1H-cyclopenta[4′,5′]pyrido[3′,2′:4,5]thieno[3,2-d]pyrimidine]"
2,2 to 50,"Cc1cc(-c2ccccc2)nc2sc3c(N4CCNCC4)nc(OC(C)C)nc3c12 [9-Methyl-7-phenyl-4-(piperazin-1-yl)-2-iso-propoxy-pyrido[3′,2′:4,5]thieno[3,2-d]pyrimidine]"
3,2 to 50,"CCOc1nc(N2CCNCC2)nc2c1sc1nc(-c3ccc(Cl)cc3)cc(CC)c12 [7-(4-Chloro-phenyl)-9-ethyl-4-ethoxy-2-(piperazin-1-yl)-pyrido[3′,2′:4,5]thieno[3,2-d]pyrimidine]"
4,2 to 50,"CCCOc1nc(N2CCNCC2)c2sc3nc(-c4ccc(OCC)cc4)cc(CC)c3c2n1 [7-(4-Ethoxy-phenyl)-9-ethyl-4-(piperazin-1-yl)-2-n-propoxy-pyrido[3′,2′:4,5]thieno[3,2-d]pyrimidine]"
5,2 to 50,"CCOc1nc(N2CCNCC2)nc2c1sc1nc(-c3ccc(C)cc3)cc(CC(C)C)c12 [9-iso-Butyl-4-ethoxy-7-(4-methyl-phenyl)-2-(piperazin-1-yl)-pyrido[3′,2′:4,5]thieno-[3,2-d]pyrimidine]"
6,2 to 50,"CCOc1nc(N2CCNCC2)nc2c1sc1nc(N3CCOCC3)c3c(c12)CCCCC3 [9-Ethoxy-6-morpholino-11-(piperazin-1-yl)-2,3,4,5-tetrahydro-1H-cyclohepta[4′,5′]pyrido[3′,2′:4,5]thieno[3,2-d]pyrimidine]"
7,2 to 50,"CCOc1nc(N2CCNCC2)nc2c1sc1nc(-c3ccc(C#N)cc3)cc(C(F)(F)F)c12 [7-(4-Cyano-phenyl)-4-ethoxy-2-piperazin-1-yl-9-trifluoromethyl-pyrido[3′,2′:4,5]thieno[3,2-d]pyrimidine]"
8,2 to 50,"CCOc1nc(N2CCNCC2)nc2c1sc1nc(-c3ccccc3)c3c(c12)CCCC3 [8-Ethoxy-5-phenyl-10-piperazin-1-yl-pyrimido[4′,5′:4,5]thieno[2,3-c]-1,2,3,4-tetrahydro-isoquinoline-hydrochloride]"
